# Laboratory results from US4378366A, “2-[Trifluoroethylamine]oxazolines” (Science Union et Cie, priority 1978, dated 1983).
# Assay: solubility in dilute aqueous hydrochloric acid
# Type: physicochemical
# Settings: dilute or N/10 aqueous hydrochloric acid; hydrochloride formed
row,SMILES,solubility in hydrochloric acid solution
1,"FC(F)(F)C(NC1=NCCO1)C1CCCCC1 (single isomer, unassigned) [IV, 2-[(1-trifluoromethyl 1-cyclohexyl)methylamino]oxazoline (dextrorotatory isomer)]",soluble in dilute hydrochloric acid
2,"CC(NC1=NCCO1)C(F)(F)F (racemic) [I, dl 2-(α-trifluoromethylethylamino)oxazoline]",soluble in the dilute aqueous solutions of hydrochloric acid
3,"FC(F)(F)C(NC1=NCCO1)C1CC1 (racemic) [II, dl 2-[(1-trifluoromethyl 1-cyclopropyl)methylamino]oxazoline]",easily soluble in an aqueous solution of the just calculated amount of N/10 hydrochloric acid
4,"FC(F)(F)C(NC1=NCCCN1)C1CCCCC1 (single isomer, unassigned) [XI, 2-[(1-trifluoromethyl 1-cyclohexyl)methylamino]tetrahydropyrimidine (laevorotatory isomer)]",soluble in N/10 hydrochloric acid solutions
5,"CC(C)CC(NC1=NCCO1)C(F)(F)F (racemic) [III, dl 2-(1-trifluoromethyl 3-methylbutylamino)oxazoline]",soluble in dilute hydrochloric acid
6,"FC(F)(F)C(F)(F)C(NC1=NCCO1)C1CCCCC1 (racemic) [X, dl 2-[(1-pentafluoroethyl 1-cyclohexyl)methylamino]oxazoline]",soluble in N/10 hydrochloric acid solutions
